Measured values reported in PubChem BioAssay (NCI).
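Step 1: Grow cells in 96-well plates. Step 2: Expose to compound for 48 hours at 5 concentrations. Step 3: Interpolate endpoints linearly; if unreached, use highest concentration. At the TGI there is no net growth.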

Legend:
Experiment in all cases: growth of human tumour cells (NCI), 48 h
786-0 renal = system: 786-0 renal
A498 renal = system: A498 renal
A549 NSCLC = system: A549 NSCLC
ACHN renal = system: ACHN renal
BT-549 breast = system: BT-549 breast
CAKI-1 renal = system: CAKI-1 renal
CCRF-CEM leukemia = system: CCRF-CEM leukemia
COLO 205 colon = system: COLO 205 colon
DU-145 prostate = system: DU-145 prostate
EKVX NSCLC = system: EKVX NSCLC
HCC-2998 colon = system: HCC-2998 colon
HCT-116 colon = system: HCT-116 colon
HCT-15 colon = system: HCT-15 colon
HL-60(TB) leukemia = system: HL-60(TB) leukemia
HOP-62 NSCLC = system: HOP-62 NSCLC
HOP-92 NSCLC = system: HOP-92 NSCLC
HS 578T breast = system: HS 578T breast
HT29 colon = system: HT29 colon
IGROV1 ovarian = system: IGROV1 ovarian
K-562 leukemia = system: K-562 leukemia
KM12 colon = system: KM12 colon
LOX IMVI melanoma = system: LOX IMVI melanoma
M14 melanoma = system: M14 melanoma
MALME-3M melanoma = system: MALME-3M melanoma
MCF7 breast = system: MCF7 breast
MDA-MB-231 breast = system: MDA-MB-231 breast
MDA-MB-435 = system: MDA-MB-435
MDA-N = system: MDA-N
MOLT-4 leukemia = system: MOLT-4 leukemia
NCI-H226 lung = system: NCI-H226 lung
NCI-H23 lung = system: NCI-H23 lung
NCI-H460 lung = system: NCI-H460 lung
NCI-H522 lung = system: NCI-H522 lung
NCI/ADR-RES ovarian = system: NCI/ADR-RES ovarian
OVCAR-3 ovarian = system: OVCAR-3 ovarian
OVCAR-4 ovarian = system: OVCAR-4 ovarian
OVCAR-5 ovarian = system: OVCAR-5 ovarian
OVCAR-8 ovarian = system: OVCAR-8 ovarian
PC-3 prostate = system: PC-3 prostate
RPMI-8226 leukemia = system: RPMI-8226 leukemia
RXF 393 renal = system: RXF 393 renal
SF-268 CNS = system: SF-268 CNS
SF-295 CNS = system: SF-295 CNS
SF-539 CNS = system: SF-539 CNS
SK-MEL-2 melanoma = system: SK-MEL-2 melanoma
SK-MEL-28 melanoma = system: SK-MEL-28 melanoma
SK-MEL-5 melanoma = system: SK-MEL-5 melanoma
SK-OV-3 ovarian = system: SK-OV-3 ovarian
SN12C renal = system: SN12C renal
SNB-19 CNS = system: SNB-19 CNS
SNB-75 CNS = system: SNB-75 CNS
SR leukemia = system: SR leukemia
SW-620 colon = system: SW-620 colon
T-47D breast = system: T-47D breast
TK-10 renal = system: TK-10 renal
U251 CNS = system: U251 CNS
UACC-257 melanoma = system: UACC-257 melanoma
UACC-62 melanoma = system: UACC-62 melanoma
UO-31 renal = system: UO-31 renal

Compound Brc1ccc2c(-c3csc(-c4c[nH]c5ccc(Br)cc45)n3)c[nH]c2c1 has a TGI (786-0 renal) of 4.71 µM, a TGI (A498 renal) of 8.42 µM and a TGI (A549 NSCLC) of 19 µM. It also gave a TGI (ACHN renal) of 11.1 µM, a TGI (BT-549 breast) of 27.7 µM and a TGI (CAKI-1 renal) of 9.81 µM. It also gave a TGI (CCRF-CEM leukemia) of over 29.2 µM, a TGI (COLO 205 colon) of over 26.7 µM and a TGI (DU-145 prostate) of 15.5 µM. The TGI (EKVX NSCLC) was 7.15 µM, the TGI (HCC-2998 colon) was 5.51 µM and the TGI (HCT-116 colon) was 13.9 µM. For the same compound, the TGI (HCT-15 colon) was 14.5 µM, the TGI (HL-60(TB) leukemia) was 19.7 µM and the TGI (HOP-62 NSCLC) was 27.1 µM. The TGI (HOP-92 NSCLC) was 9.27 µM, the TGI (HS 578T breast) was over 51.3 µM and the TGI (HT29 colon) was 3.35 µM. It also gave a TGI (IGROV1 ovarian) of 16.4 µM, a TGI (K-562 leukemia) of over 22.2 µM and a TGI (KM12 colon) of 6.4 µM. The TGI (LOX IMVI melanoma) was 4.16 µM, the TGI (M14 melanoma) was 13.3 µM and the TGI (MALME-3M melanoma) was 19.3 µM. For the same compound, the TGI (MCF7 breast) was over 100 µM, the TGI (MDA-MB-231 breast) was over 24.6 µM and the TGI (MDA-MB-435) was 17.7 µM. It also gave a TGI (MDA-N) of 16.6 µM, a TGI (MOLT-4 leukemia) of over 22.4 µM and a TGI (NCI-H226 lung) of 32.1 µM. The TGI (NCI-H23 lung) was 14.2 µM, the TGI (NCI-H460 lung) was 6.89 µM and the TGI (NCI-H522 lung) was 4.95 µM. The TGI (NCI/ADR-RES ovarian) was 21.2 µM, the TGI (OVCAR-3 ovarian) was 23.2 µM and the TGI (OVCAR-4 ovarian) was 23.9 µM. For the same compound, the TGI (OVCAR-5 ovarian) was 7.54 µM, the TGI (OVCAR-8 ovarian) was 24.1 µM and the TGI (PC-3 prostate) was 19.8 µM. The TGI (RPMI-8226 leukemia) was over 21.4 µM, the TGI (RXF 393 renal) was 9.55 µM and the TGI (SF-268 CNS) was 13.2 µM. It also gave a TGI (SF-295 CNS) of 10.9 µM, a TGI (SF-539 CNS) of 15.1 µM and a TGI (SK-MEL-2 melanoma) of 18.8 µM. For the same compound, the TGI (SK-MEL-28 melanoma) was 25.8 µM, the TGI (SK-MEL-5 melanoma) was 12.8 µM and the TGI (SK-OV-3 ovarian) was 24.2 µM. For the same compound, the TGI (SN12C renal) was 18.9 µM, the TGI (SNB-19 CNS) was 14.7 µM and the TGI (SNB-75 CNS) was 24.9 µM. It also gave a TGI (SR leukemia) of over 100 µM, a TGI (SW-620 colon) of 28.3 µM and a TGI (T-47D breast) of 21.3 µM. The TGI (TK-10 renal) was 15.2 µM, the TGI (U251 CNS) was 16.5 µM and the TGI (UACC-257 melanoma) was 23.1 µM. For the same compound, the TGI (UACC-62 melanoma) was 9.2 µM and the TGI (UO-31 renal) was 14.4 µM.

Work on NC(N)=NS(=O)(=O)c1ccc(NC(=O)c2ccc3nc4ccccc4c(Nc4ccc(S(=O)(=O)N=C(N)N)cc4)c3c2)cc1 yielded a TGI (786-0 renal) of over 100 µM, a TGI (A498 renal) of over 100 µM and a TGI (A549 NSCLC) of over 100 µM. The TGI (ACHN renal) was over 100 µM, the TGI (BT-549 breast) was over 100 µM and the TGI (CAKI-1 renal) was over 100 µM. The TGI (CCRF-CEM leukemia) was over 100 µM, the TGI (COLO 205 colon) was over 100 µM and the TGI (DU-145 prostate) was over 100 µM. For the same compound, the TGI (EKVX NSCLC) was over 100 µM, the TGI (HCC-2998 colon) was over 100 µM and the TGI (HCT-116 colon) was over 100 µM. The TGI (HCT-15 colon) was over 100 µM, the TGI (HL-60(TB) leukemia) was over 100 µM and the TGI (HOP-62 NSCLC) was over 100 µM. The TGI (HOP-92 NSCLC) was over 100 µM, the TGI (HS 578T breast) was over 100 µM and the TGI (HT29 colon) was over 100 µM. It also gave a TGI (IGROV1 ovarian) of over 100 µM, a TGI (K-562 leukemia) of over 100 µM and a TGI (KM12 colon) of over 100 µM. For the same compound, the TGI (LOX IMVI melanoma) was over 100 µM, the TGI (M14 melanoma) was over 100 µM and the TGI (MALME-3M melanoma) was over 100 µM. It also gave a TGI (MCF7 breast) of over 100 µM, a TGI (MDA-MB-231 breast) of over 100 µM and a TGI (MDA-MB-435) of over 100 µM. For the same compound, the TGI (MDA-N) was over 100 µM, the TGI (MOLT-4 leukemia) was over 100 µM and the TGI (NCI-H226 lung) was over 100 µM. It also gave a TGI (NCI-H23 lung) of over 100 µM, a TGI (NCI-H460 lung) of over 100 µM and a TGI (NCI-H522 lung) of over 100 µM. The TGI (NCI/ADR-RES ovarian) was over 100 µM, the TGI (OVCAR-3 ovarian) was over 100 µM and the TGI (OVCAR-4 ovarian) was over 100 µM. For the same compound, the TGI (OVCAR-5 ovarian) was over 100 µM, the TGI (OVCAR-8 ovarian) was over 100 µM and the TGI (PC-3 prostate) was over 100 µM. For the same compound, the TGI (RPMI-8226 leukemia) was over 100 µM, the TGI (RXF 393 renal) was over 100 µM and the TGI (SF-268 CNS) was over 100 µM. The TGI (SF-295 CNS) was over 100 µM, the TGI (SF-539 CNS) was over 100 µM and the TGI (SK-MEL-2 melanoma) was over 100 µM. It also gave a TGI (SK-MEL-28 melanoma) of over 100 µM, a TGI (SK-MEL-5 melanoma) of over 100 µM and a TGI (SK-OV-3 ovarian) of over 100 µM. It also gave a TGI (SN12C renal) of over 100 µM, a TGI (SNB-19 CNS) of over 100 µM and a TGI (SNB-75 CNS) of over 100 µM. For the same compound, the TGI (SR leukemia) was over 100 µM, the TGI (SW-620 colon) was over 100 µM and the TGI (T-47D breast) was over 100 µM. For the same compound, the TGI (TK-10 renal) was over 100 µM, the TGI (U251 CNS) was over 100 µM and the TGI (UACC-257 melanoma) was over 100 µM. For the same compound, the TGI (UACC-62 melanoma) was over 100 µM and the TGI (UO-31 renal) was over 100 µM.
